Patent US7939552B2, “Benzyloxypropylamine derivative” (Nippon Zoki Pharmaceutical Co., Ltd., priority 2005, dated 2011)
Like-named read-outs stand apart in the source and are kept apart here.

Key:
human NK1 receptor = biological target: T1, human NK1 receptor (Homo sapiens, UniProt P25103); experiment: Human NK1 receptor binding assay (3H-Sar9-SP, hNK1-CHO cells); conditions: room temperature 60 minutes
T1 construct: expressed in transfected cells; host or cells: CHO cells (hNK1-CHO)
Experimental: A supernatant liquid was removed from an hNK1-CHO cell incubation flask in a confluent state, trypsin (0.25%)-EDTA (1 mmol/L) (Gibco) was added thereto and the cells were exfoliated and recovered. After they were washed with a buffer A (pH 7.5; 50 mmol/L Tris hydrochloride 50 mmol/L, 150 mmol/L NaCl and 0.02% BSA) for one time (at […] for 5 minutes), cell numbers were adjusted and re-floated on a buffer for assay {a buffer A to which 40 μg/mL bacitracin (Sigma), 4 μg/mL leupeptin (Sigma), 4 μg/mL chymostatin (Sigma) and 4 μg/mL phosphoramidon (Sigma) were added}. The hNK1-CHO cells (100 μL) were placed in a tube (TPX-12, Maruemu) in which 300 μL of the buffer for assay was charged so as to make cells 10^5 per tube, 50 μL of a hot solution (^3H-Sar^9-SP, final concentration: […]) and 50 μL of a substance to be tested were added (a system of 500 μL), stirred and made to react at room temperature for 60 minutes. After completion of the reaction, it was filtered through a GF/B filter (25 mm diameter, Whatman) which was previously dipped in 0.1% polyethyleneimine p-70 (Wako Pure Chemical), washed with the buffer A (4 mL each for three times), placed in a vial and dried at 60° C. for one night. After drying, 10 mL of a scintillator (AL-1, toluene base, Dojindo) was added thereto and dpm was measured by a liquid scintillation counter (for 5 minutes/vial).
With regard to a nonspecific binding, it was defined as the dpm when 10 μmol/L of the substance P was added instead of the substance to be tested. The experiment was conducted in duplicate and at least three experiments were repeated. IC50 value was calculated using a probit method (statistic library II, Yukms).

[1] = Pharmacokinetic test in blood by a single oral administration to guinea pigs; assay type: in vivo; conditions: 100 mg/kg orally, plasma; for AUC(0-t): read-out: AUC 0-24 h; for half-life: read-out: t½ (converted)
Experimental: Male guinea pigs of a Hartley strain (SPF, Nippon SLC) were purchased and subjected to a preliminary breeding for one week and the normally grown ones were fasted for one night and used for the test. The compound of the present invention was suspended in 1 g/dL methyl cellulose solution and 100 mg/kg was orally administered in an administering dose of 5 mL/kg. After 0.5, 1, 2, 4, 8 and 24 hour(s) from the oral administration, about 0.4 mL of blood was collected from the vein of median of foreleg using a heparinized capillary. Plasma prepared by its centrifugation (at 12,000 rpm for 10 minutes) was stored at −80° C. until the measurement. Measurement of the concentration in blood was conducted by a UV-detecting HPLC method.

NK1 receptor = biological target: T2, NK1 receptor (Cavia porcellus, UniProt P30547); experiment: Test for transfer into cerebral center of guinea pigs ([3H]substance P binding in striatum homogenate after oral dosing); assay type: in vivo; conditions: 4 hours after oral administration of 20 mg/mL at 5 mL/kg
T2 construct: the brain was excised and the striatum was collected; from tissue; host or cells: striatum of male Hartley guinea pigs (Nippon SLC), homogenate after oral dosing
Experimental: Male guinea pigs of a Hartley strain (four weeks age, SPF, Nippon SLC) were purchased, subjected to a preliminary breeding for not shorter than one week, fasted for one night and used for the test where one group comprised eight guinea pigs. As a substance to be tested, the Compound 21 which is the compound of the present invention was suspended in 1% methyl cellulose […] to make 20 mg/mL. As a substance for comparison, LY-303870 [(R)-1-[N-(2-methoxybenzyl)acetylamino]-3-(1H-indol-3-yl)-2-[N-(2-(4-(piperidin-1-yl)piperidin-1-yl)acetyl)amino]propane] was dissolved in a 1% aqueous solution of MC to make 20 mg/mL.
A test was conducted in accordance with a method of Iyengar, et al. Thus, a 1% aqueous solution of MC and the above-prepared solution of the test substance were orally administered in an administering dose of 5 mL/kg, then the animals were killed by carbon dioxide gas after 4 hours from administration of the test substance solution and after 1 hour from administration of the 1% aqueous MC solution and the comparative substance solution, the brain was excised and the striatum was collected. After measuring its wet weight, 50 mmol/L Tris-HCl (pH 7.5) was added thereto so as to make it 40 mg/mL followed by homogenizing for 10 seconds. […]

[2] = male, Hartley, guinea pig, po, read-out: Cmax
[3] = male, Hartley, guinea pig, po, read-out: Tmax

T1 sequence (P25103 whole entry): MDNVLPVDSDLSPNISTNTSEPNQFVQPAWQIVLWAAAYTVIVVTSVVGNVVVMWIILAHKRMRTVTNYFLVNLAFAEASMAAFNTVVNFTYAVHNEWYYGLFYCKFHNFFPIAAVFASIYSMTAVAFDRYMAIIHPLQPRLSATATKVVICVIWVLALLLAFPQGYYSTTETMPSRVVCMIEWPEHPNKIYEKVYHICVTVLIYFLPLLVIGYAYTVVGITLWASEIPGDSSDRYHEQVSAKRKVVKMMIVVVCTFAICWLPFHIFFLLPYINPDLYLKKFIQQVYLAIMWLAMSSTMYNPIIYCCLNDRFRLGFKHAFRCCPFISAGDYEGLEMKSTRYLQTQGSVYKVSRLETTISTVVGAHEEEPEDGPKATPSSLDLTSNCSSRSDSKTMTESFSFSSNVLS
T2 sequence (P30547 whole entry): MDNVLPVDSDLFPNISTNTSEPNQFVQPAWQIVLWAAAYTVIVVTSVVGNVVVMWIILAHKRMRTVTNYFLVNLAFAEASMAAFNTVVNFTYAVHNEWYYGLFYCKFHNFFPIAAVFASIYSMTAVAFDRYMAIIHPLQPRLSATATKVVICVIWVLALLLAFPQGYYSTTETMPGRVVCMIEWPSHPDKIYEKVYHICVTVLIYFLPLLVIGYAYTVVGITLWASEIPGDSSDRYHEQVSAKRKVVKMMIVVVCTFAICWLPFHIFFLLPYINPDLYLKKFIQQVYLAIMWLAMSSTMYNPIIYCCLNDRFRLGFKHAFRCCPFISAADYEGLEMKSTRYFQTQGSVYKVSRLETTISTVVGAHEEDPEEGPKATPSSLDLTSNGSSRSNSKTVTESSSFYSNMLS

| SMILES | IC50 (human NK1 receptor) | AUC(0-t) ([1]; male, Hartley, guinea pig, po) | Cmax [1, 2] | Tmax [1, 3] | half-life ([1]; male, Hartley, guinea pig, po) | Cmax [1] | Tmax [1] | t½ [1] | specific binding of [3H]substance P (NK1 receptor; guinea pig striatum homogenate, control group 1083.4±95.5 dpm) | occupying rate of the NK1 receptor in the brain (NK1 receptor; guinea pigs, mean value ±standard deviation) |
| --- | --- | --- | --- | --- | --- | --- | --- | --- | --- | --- |
| Cl.O=C(NCC(COCc1cc(C(F)(F)F)cc(C(F)(F)F)c1)c1ccccc1)C1CCNCC1 (centres unmarked) [Compound 4, N-[3-(3,5-Bis(trifluoromethyl)benzyloxy)-2-phenylpropyl]piperidine-4-carboxamide hydrochloride] | 29.3 nM | 28.2 µg·h/mL | 2000 ng/mL | 8 h |  |  |  |  |  |  |
| O=C(NCC(COCc1cc(C(F)(F)F)cc(C(F)(F)F)c1)c1ccccc1)c1cc[n+]([O-])cc1 (centres unmarked) [Compound 20, N-[3-(3,5-Bis(trifluoromethyl)benzyloxy)-2-phenylpropyl]-1-oxyisonicotinamide] | 5.8 nM | 87.3 µg·h/mL | 10900 ng/mL | 2 h | 3.4 h |  |  |  |  |  |
| O=C(NCC(COCc1cc(C(F)(F)F)cc(C(F)(F)F)c1)c1ccc(F)cc1)c1cc[n+]([O-])cc1 (centres unmarked) [Compound 21, N-[3-(3,5-Bis(trifluoromethyl)benzyloxy)-2-(4-fluorophenyl)propyl]-1-oxyisonicotinamide] | 2.9 nM |  |  |  |  | 26900 ng/mL | 4 h | 3.2 h | 228.2±15.5 dpm | 79.9±1.4% |
| O=C(NCC(COCc1cc(C(F)(F)F)cc(C(F)(F)F)c1)c1ccccc1)c1ccc[n+]([O-])c1 (centres unmarked) [Compound 22, N-[3-(3,5-Bis(trifluoromethyl)benzyloxy)-2-phenylpropyl]-1-oxynicotinamide] | 6.4 nM | 200 µg·h/mL | 18300 ng/mL | 2 h | 2.6 h |  |  |  |  |  |
| O=C(NCC(COCc1cc(C(F)(F)F)cc(C(F)(F)F)c1)c1ccc(F)cc1)c1ccc[n+]([O-])c1 (centres unmarked) [Compound 23, N-[3-(3,5-Bis(trifluoromethyl)benzyloxy)-2-(4-fluorophenyl)propyl]-1-oxynicotinamide] | 5.4 nM | 236 µg·h/mL | 17500 ng/mL | 4 h | 3.5 h |  |  |  |  |  |
| O=C(Cc1cc[n+]([O-])cc1)NCC(COCc1cc(C(F)(F)F)cc(C(F)(F)F)c1)c1ccccc1 (centres unmarked) [Compound 39, N-[3-(3,5-Bis(trifluoromethyl)benzyloxy)-2-phenylpropyl]-2-(1-oxypyridin-4-yl)acetamide] | 7.3 nM | 379 µg·h/mL | 25700 ng/mL | 8 h | 3.2 h |  |  |  |  |  |

Results, then the molecule that gave them:

| IC50 (human NK1 receptor) | AUC(0-t) ([1]; male, Hartley, guinea pig, po) | Cmax [1, 2] | Tmax [1, 3] | half-life ([1]; male, Hartley, guinea pig, po) | Cmax [1] | Tmax [1] | t½ [1] | specific binding of [3H]substance P (NK1 receptor; guinea pig striatum homogenate, control group 1083.4±95.5 dpm) | occupying rate of the NK1 receptor in the brain (NK1 receptor; guinea pigs, mean value ±standard deviation) | SMILES |
| --- | --- | --- | --- | --- | --- | --- | --- | --- | --- | --- |
| 7.3 nM | 279 µg·h/mL | 22800 ng/mL | 4 h | 4 h |  |  |  |  |  | O=C(Cc1cc[n+]([O-])cc1)NCC(COCc1cc(C(F)(F)F)cc(C(F)(F)F)c1)c1ccc(F)cc1 (centres unmarked) [Compound 40, N-[3-(3,5-Bis(trifluoromethyl)benzyloxy)-2-(4-fluorophenyl)propyl]-2-(1-oxypyridin-4-yl)acetamide] |
| 4 nM | 215 µg·h/mL | 16900 ng/mL | 4 h | 3 h |  |  |  |  |  | O=C(Cc1ccc[n+]([O-])c1)NCC(COCc1cc(C(F)(F)F)cc(C(F)(F)F)c1)c1ccc(F)cc1 (centres unmarked) [Compound 42, N-[3-(3,5-Bis(trifluoromethyl)benzyloxy)-2-(4-fluorophenyl)propyl]-2-(1-oxypyridin-3-yl)acetamide] |
| 9.4 nM | 103 µg·h/mL | 13800 ng/mL | 1 h | 3.4 h |  |  |  |  |  | O=C(CCc1cc[n+]([O-])cc1)NCC(COCc1cc(C(F)(F)F)cc(C(F)(F)F)c1)c1ccccc1 (centres unmarked) [Compound 51, N-[3-(3,5-Bis(trifluoromethyl)benzyloxy)-2-phenylpropyl]-3-(1-oxypyridin-4-yl)propionamide] |
| 56.4 nM | 19.7 µg·h/mL | 1700 ng/mL | 4 h | 8 h |  |  |  |  |  | Cl.O=C(NCC(COCc1cc(C(F)(F)F)cc(C(F)(F)F)c1)c1ccccc1)c1ccc(CN2CCCC2)cc1 (centres unmarked) [Compound 64, N-[3-(3,5-Bis(trifluoromethyl)benzyloxy)-2-phenylpropyl]-4-pyrrolidin-1-ylmethylbenzamide hydrochloride] |
